Results taken from the supplement of paper PMC10307832.

Assays:
Test in all cases: relative viability (nuclei count vs DMSO), 5 days (fraction); higher = more cells survive
VE-821 + Phenformin = compound: CS(=O)(=O)c1ccc(-c2cnc(N)c(C(=O)Nc3ccccc3)n2)cc1 [VE-821] + N=C(N)NC(=N)NCCc1ccccc1 [Phenformin] (partner 250 µM)
How it was run: (§1)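 Cells from lung cancer lines were seeded into 1536-well plates and, one day later, dosed by pin tool. Treatments were either a single drug or a fixed dose of an anchor drug with five library-drug doses (not always all listed) in √10 steps. After 5 days, nuclei were stained in a one-step fixation (final 0.05% Triton X-100, 1% formaldehyde, 1 ug/ml Hoechst) and counted on 4× images, and relative viability is the treated-to-vehicle nuclei ratio, as the median of duplicate plates.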

Vismodegib + Crizotinib = compound: CS(=O)(=O)c1ccc(C(=O)Nc2ccc(Cl)c(-c3ccccn3)c2)c(Cl)c1 [Vismodegib] + C[C@@H](Oc1cc(-c2cnn(C3CCNCC3)c2)cnc1N)c1c(Cl)ccc(F)c1Cl [Crizotinib] (partner 1 µM)
How it was run: as §1

Vismodegib + Phenformin = compound: CS(=O)(=O)c1ccc(C(=O)Nc2ccc(Cl)c(-c3ccccn3)c2)c(Cl)c1 [Vismodegib] + N=C(N)NC(=N)NCCc1ccccc1 [Phenformin] (partner 250 µM)
How it was run: as §1

Ruxolitinib + Tozasertib = compound: N#CC[C@H](C1CCCC1)n1cc(-c2ncnc3[nH]ccc23)cn1 [Ruxolitinib] + Cc1cc(Nc2cc(N3CCN(C)CC3)nc(Sc3ccc(NC(=O)C4CC4)cc3)n2)n[nH]1 [Tozasertib] (partner 0.1 µM)
How it was run: as §1

Cell Line	relative viability (VE-821 + Phenformin; first compound 0.08 µM)	relative viability (VE-821 + Phenformin; first compound 0.253 µM)	relative viability (VE-821 + Phenformin; first compound 0.8 µM)	relative viability (VE-821 + Phenformin; first compound 2.53 µM)	relative viability (VE-821 + Phenformin; first compound 8 µM)	relative viability (Vismodegib + Crizotinib; first compound 0.08 µM)	relative viability (Vismodegib + Crizotinib; first compound 0.253 µM)	relative viability (Vismodegib + Crizotinib; first compound 0.8 µM)	relative viability (Vismodegib + Crizotinib; first compound 2.53 µM)	relative viability (Vismodegib + Crizotinib; first compound 8 µM)	relative viability (Vismodegib + Phenformin; first compound 0.08 µM)	relative viability (Vismodegib + Phenformin; first compound 0.253 µM)	relative viability (Vismodegib + Phenformin; first compound 0.8 µM)	relative viability (Vismodegib + Phenformin; first compound 2.53 µM)	relative viability (Vismodegib + Phenformin; first compound 8 µM)	relative viability (Ruxolitinib + Tozasertib; first compound 0.08 µM)	relative viability (Ruxolitinib + Tozasertib; first compound 0.253 µM)	relative viability (Ruxolitinib + Tozasertib; first compound 0.8 µM)	relative viability (Ruxolitinib + Tozasertib; first compound 2.53 µM)	relative viability (Ruxolitinib + Tozasertib; first compound 8 µM)
NCI-H1666	0.578	0.536	0.602	0.6	0.535	0.917	0.849	1.06	1	0.948	0.557	0.587	0.535	0.517	0.565	0.596	0.579	0.587	0.585	0.521
EPLC-272H	0.322	0.29	0.326	0.383	0.26	0.899	0.849	0.856	0.867	1.04	0.348	0.313	0.316	0.271	0.264	0.25	0.407	0.241	0.345	0.264
NCI-H838	0.605	0.454	0.528	0.599	0.385	0.816	0.787	0.885	0.821	0.848	0.53	0.573	0.559	0.67	0.612	0.299	0.23	0.256	0.223	0.225
NCI-H2087	0.562	0.486	0.427	0.438	0.375	0.834	0.906	0.713	0.797	0.908	0.45	0.445	0.427	0.45	0.399	0.256	0.229	0.24	0.276	0.299
LC-2-ad	0.666	0.593	0.661	0.686	0.591	0.419	0.477	0.434	0.37	0.469	0.626	0.583	0.561	0.618	0.494		0.435	0.548	0.482	0.515
NCI-H2405	0.37	0.373	0.36	0.453	0.432	0.851	0.86	0.807	0.784	0.83	0.336	0.386	0.381	0.381	0.39		0.787	0.833	0.758	0.604
HCC-366	0.709	0.57	0.555	0.502	0.12	0.623	0.567	0.501	0.508	0.566	0.683	0.614	0.631	0.619	0.586	0.117	0.113	0.192	0.0897	0.101
NCI-H3122	0.394	0.348	0.354	0.349	0.332	0.307	0.286	0.255	0.295	0.268	0.377	0.356	0.362	0.365	0.36		0.35	0.493	0.439	0.441
LU99A	0.947	0.896	0.807	0.873	0.478	0.664	0.49	0.575	0.491	0.624	0.901	0.807	0.813	0.802	0.772	0.296	0.26	0.298	0.303	0.316
NCI-H1650	0.496	0.422	0.363	0.3	0.21	0.884	0.904	0.97	0.932	0.918	0.387	0.414	0.479	0.415	0.406		0.503	0.386	0.455	0.357
EMC-BAC-2	0.569	0.475	0.577	0.528	0.463	0.768	0.797	0.72	0.73	0.796	0.571	0.53	0.5	0.506	0.502	0.292	0.288	0.279	0.262	0.236
HCC-78	0.646	0.639	0.746	0.731	0.617	0.307	0.351	0.286	0.351	0.347	0.664	0.704	0.575	0.615	0.683	0.512	0.45	0.414	0.55	0.5
NCI-H1734	0.392	0.386	0.377	0.402	0.271	0.687	0.654	0.762	0.62	0.756	0.384	0.316	0.396	0.322	0.384	0.332	0.25	0.281	0.209	0.223
COR-L23	0.444	0.438	0.472	0.502	0.427	0.593	0.589	0.603	0.591	0.816	0.441	0.423	0.43	0.453	0.493	0.204	0.217	0.204	0.192	0.146
RERF-LC-KJ	0.397	0.361	0.377	0.407	0.41	0.821	0.813	0.81	0.848	0.82	0.422	0.427	0.432	0.437	0.455	0.401	0.492	0.555	0.495	0.384
NCI-H1437	0.318	0.319	0.329	0.306	0.274	0.876	0.912	0.902	0.934	0.931	0.296	0.309	0.291	0.333	0.289	0.457	0.39	0.406	0.413	0.422
NCI-H1915	0.391	0.359	0.39	0.385	0.347	0.903	0.874	0.877	0.866	0.965	0.368	0.359	0.381	0.355	0.357	0.462	0.434	0.464	0.398	0.419
SK-MES-1	0.708	0.626	0.718	0.628	0.445	0.94	0.936	0.923	0.969	1.07	0.625	0.647	0.669	0.635	0.631	1.01	0.873	0.906	0.768	0.735
NCI-H522	0.675	0.593	0.662	0.555	0.654						0.643	0.618	0.673	0.657	0.632	0.576	0.567	0.602	0.533	0.524
NCI-H1299						0.918	0.929	0.96	0.96	0.947										

Cell Line	relative viability (VE-821 + Phenformin; first compound 0.08 µM)	relative viability (VE-821 + Phenformin; first compound 0.253 µM)	relative viability (VE-821 + Phenformin; first compound 0.8 µM)	relative viability (VE-821 + Phenformin; first compound 2.53 µM)	relative viability (VE-821 + Phenformin; first compound 8 µM)	relative viability (Vismodegib + Crizotinib; first compound 0.08 µM)	relative viability (Vismodegib + Crizotinib; first compound 0.253 µM)	relative viability (Vismodegib + Crizotinib; first compound 0.8 µM)	relative viability (Vismodegib + Crizotinib; first compound 2.53 µM)	relative viability (Vismodegib + Crizotinib; first compound 8 µM)	relative viability (Vismodegib + Phenformin; first compound 0.08 µM)	relative viability (Vismodegib + Phenformin; first compound 0.253 µM)	relative viability (Vismodegib + Phenformin; first compound 0.8 µM)	relative viability (Vismodegib + Phenformin; first compound 2.53 µM)	relative viability (Vismodegib + Phenformin; first compound 8 µM)	relative viability (Ruxolitinib + Tozasertib; first compound 0.08 µM)	relative viability (Ruxolitinib + Tozasertib; first compound 0.253 µM)	relative viability (Ruxolitinib + Tozasertib; first compound 0.8 µM)	relative viability (Ruxolitinib + Tozasertib; first compound 2.53 µM)	relative viability (Ruxolitinib + Tozasertib; first compound 8 µM)
NCI-H1651	0.349	0.305	0.361	0.32	0.283	0.776	0.851	0.871	0.825	0.829	0.353	0.336	0.365	0.343	0.327	0.714	0.637	0.64	0.573	0.682
NCI-H661	0.282	0.255	0.272	0.286	0.311	0.961	0.94	1.05	0.93	1.01	0.31	0.264	0.3	0.259	0.291	0.358	0.354	0.365	0.363	0.352
NCI-H1944	0.235	0.2	0.172	0.238	0.157	0.993	1.22	1.08	1.05	1.08	0.192	0.207	0.205	0.197	0.216	0.248	0.263	0.24	0.292	0.266
NCI-H2228	0.356	0.294	0.284	0.457	0.194	0.563	0.412	0.426	0.547	0.419	0.387	0.452	0.301	0.296	0.314	0.32	0.33	0.257	0.314	0.208
NCI-H1792	0.332		0.281	0.342	0.258	0.93	0.939	0.976	0.986	0.907		0.318	0.254		0.41					
HCC-44	0.261	0.15	0.263	0.198	0.266	0.782	0.721	0.829	0.763	0.783	0.184	0.195	0.179	0.173	0.183	0.953	1.11	1.15	0.804	0.761
NCI-H358	0.386	0.311	0.352	0.373	0.281	0.596	0.479	0.546	0.551	0.579	0.345	0.418	0.359	0.329	0.292	0.102	0.0986	0.102	0.102	0.0752
EBC-1						0.173	0.201	0.168	0.182	0.202										
NCI-H2342	0.756	0.663	0.548	0.508	0.475						0.632	0.612	0.581	0.475	0.529	0.529	0.556	0.486	0.479	0.532
Calu-6						0.705	0.754	0.757	0.814	0.886										
NCI-H1703						0.54	0.664	0.628	0.57	0.93										
NCI-H1563	0.653	0.676	0.613	0.688	0.596	0.914	0.801	0.888	0.814	0.969	0.622	0.623	0.676	0.721	0.626					
NCI-H1623	0.564	0.557	0.449	0.575	0.497						0.553	0.577	0.661	0.536	0.578	0.488	0.485	0.49	0.49	0.479
IA-LM						0.719	0.769	0.906	0.681	0.94										
SW 900	0.575	0.555	0.425	0.711	0.572						0.615	0.612	0.718	0.744	0.676	0.581	0.649	0.499	0.534	0.625
NCI-H1648																	0.414	0.747	0.878	1.14
NCI-H1793	0.437	0.3	0.325	0.49	0.239							0.36	0.358	0.365	0.375	0.343	0.368	0.48	0.492	0.309
NCI-H1395	0.43	0.415	0.449	0.467	0.41						0.345	0.397	0.411	0.439	0.485	0.768	0.718	0.86	0.753	0.78
A549	0.182	0.214	0.157	0.13	0.103	0.711	0.759	0.796	0.672	0.686	0.151	0.148	0.226	0.115	0.155					
